“Also recorded” adds a separate entry of the source. A value given as a limit tells only on which side of the number the result lay.

Data on nine compounds can be found in patent US5256820A, “1-alkyl-2-acyl-1,2-disulfonylhydrazines” (Yale University, priority 1991, dated 1993).

The conditions of data set [1]: Shyam et al. J. Med. Chem. (1990) 33:2259-2264; cited from earlier work.
The conditions of data set [2]: Stewart and Evans (1989); cited from earlier work.
The nature of data set [3]: Hydrolysis in the presence of bovine serum. It counts as in vitro ADME. The settings on record: for Rate of hydrolysis: 200 μM solution. The source says:
(§1) To verify that the prodrugs would be converted to alkylating species in vivo, we performed studies on the kinetics of hydrolysis of these compounds in the presence of serum and also in the presence of proteinase K (a protease of low specificity). […] Serum from different sources, i.e., mouse, bovine and man, were not equivalent in their activities or in their rank order of substrate specificity. […] Table IV reports the effects of bovine serum concentrates on hydrolysis of two compounds--the compounds of Example 1 and Example 6.
Effects of Bovine Serum Concentration on the
^a Expressed nmol/ml/min for a 200 μM solution.

The subject of a further data set is L1210 leukemia. The data set is described as follows: Survival time of mice bearing the L1210 leukemia. The following applies: for antineoplastic activity / curative effect (in words): L1210 leukemia mice; for % 60-day survivors / % T/C (average survival time of treated/control mice × 100) / AvΔ wt % (average percent change in body weight from onset to termination of therapy): at opt. effective daily dose; for % T/C (average survival time of treated/control mice × 100): 60-day survivors not included; for AvΔ wt % (average percent change in body weight from onset to termination of therapy): vehicle control +2.0; for Opt. effective daily dose: once daily for six consecutive days, beginning 24 h after tumor implantation, L1210 mice. It is filed as in vivo, mouse. How it is done:
The antineoplastic activity of each of the compounds of Examples 1-6 was assessed by measuring their effects on the survival time of mice bearing the L1210 leukemia by the method generally disclosed in Shyam et al. J. Med. Chem. (1990) 33:2259-2264. The compounds were administered once daily for six consecutive days. Percent change in body weight from onset to termination of therapy was recorded. The results are summarized in Table I. All of the compounds tested produced at least partial 60-day "cures" of mice bearing the L1210 leukemia. […] This compound also produced 80-90% "cures" at 10 and 15 mg/kg×6.
Effects of 2-Acyl-1,2-bis(methylsulfonyl)-1-
^a Administered once daily for six consecutive days, beginning 24 h
after tumor implantation, with 5-10 mice being used per group.
^b Average day of death for untreated tumorbearing mice was 8.4.
^c Average percent change in body weight from onset to termination of
therapy. Average percent change in body weight for vehicletreated control
^d % T/C = average survival time of treated/control mice × 100;
60day survivors are listed separately and are not included in this

Data set [4] in a line: Alkylation of 4-(4'-nitrobenzyl)pyridine in presence and absence of bovine serum. The settings on record: 4 mM compound, 37° C., 1 h, 100 mM phosphate buffer pH 7.4. The method, then: Serum was capable of stimulating the alkylation of the model nucleophile, 4-(4'-nitrobenzyl)pyridine, by 2-acyl-1,2-bis(methylsulfonyl)-1-(2-chloroethyl)hydrazines, providing direct evidence for the serum-dependent generation of the alkylating species from these prodrugs (Table V).
Relative Alkylation of 4-(4'-Nitrobenzyl)pyridine
(NBP) by 4 mM 2-Acetyl-1,2-bis(methylsulfonyl)-1-(2-
chloroethyl)hydrazine at 37° C. for 1 h in 100 mM Phosphate
Buffer (pH 7.4) in the Presence and Absence of 20% Bovine

Data set [5] can be described thus: Spontaneous decomposition (hydrolysis) in aqueous phosphate buffer, phenol red proton release assay. It is filed as physicochemical. The method, then:
The compounds of the invention are relatively stable. As a measure of their stability, spontaneous decomposition in aqueous media was measured in phosphate buffer, pH 7.4 (37° C.). Hydrolysis at N-1 would result in the generation of a carboxylic acid and the corresponding 1,2-bis(methylsulfonyl)-1-(2-chloroethyl)hydrazine. Since both of these compounds are ionized under these conditions, the release of protons can be used to follow the decomposition of these and related compounds. The release of protons can be assayed by following the decrease in absorbance at 560 nm of a weakly buffered (1 mM potassium phosphate) phenol red (21 mg/L) solution. The assay has been calibrated using HC1 standards. […] The spontaneous hydrolysis of the compound of Example 1 at pH 7.4, 37° C. in 1 mM phosphate buffer occurs at approximately 0.7% of the rate of the corresponding prior art compounds [1,2,2-tris(methylsulfonyl)-1-(2-chloroethyl)hydrazine] under the same conditions. The rate of hydrolysis was highly sensitive to changes in temperature and pH (Tables II and III). […] At pH 7.4, 37° C., a 200 μM solution of the compound of Example 1 hydrolyzes at the rate of approximately 0.6% per hour. […] Therefore, stable aqueous solutions of this agent can be formulated. The other analogs synthesized according to Examples 2-6 also hydrolyzed at relatively slow rates.

Another data set is described as follows: Water solubility. It is filed as physicochemical.
Data set [6] can be described thus: Hydrolysis in the presence of serum from different sources (mouse, bovine, man). It counts as in vitro ADME. The following applies: bovine and man, in all cases.
From the text: as §1

For `CN(N(S(C)(=O)=O)S(C)(=O)=O)S(C)(=O)=O` [1-Methyl-1,2,2-tris(methylsulfonyl)hydrazine], in data set [1], the “antineoplastic activity (in words)” value is on record as “also showed antineoplastic activity” and the “toxicity (in words)” value was “relatively less toxic”.
In the case of `CCCCS(=N)(=O)CCC(N)C(=O)O` (stereo not drawn) [Buthionine sulfoximine], the “reversal of resistance to alkylating agents (in words)” value in data set [2] is “reverse this resistance by reducing cellular GSH levels”.
For the compound `CC(=O)N(N(CCCl)S(C)(=O)=O)S(C)(=O)=O` [Example 1, 1-Acetyl-1,2-bis(methylsulfonyl)-2-(2-chloroethyl)hydrazine], the Rate of hydrolysis in data set [3] (0% v/v bovine serum) stood at 0.02 nmol/mL/min; in data set [3] (5% v/v bovine serum), 0.055 nmol/mL/min; in data set [3] (10% v/v bovine serum) it was 0.10 nmol/mL/min; in data set [3] (20% v/v bovine serum), 0.26 nmol/mL/min. Further, in data set [3] (boiled dilute solutions of bovine serum), the “decrease in ability of bovine serum to hydrolyze the compound after boiling” value is greater than 75%. For the same compound, the “60-day "cures"” value in the data set with L1210 leukemia (7.5 mg/kg, six daily intraperitoneal doses) is given as 80%. Besides, the “antineoplastic activity / curative effect (in words)” value in the data set with L1210 leukemia was “highly active against the L1210 leukemia; also recorded: produced their curative effects at relatively low dosage levels”. Besides, the “% 60-day survivors” value with L1210 leukemia was determined as 80%. Also, the “% T/C (average survival time of treated/control mice × 100)” value with L1210 leukemia turned out to be 341%. The “AvΔ wt % (average percent change in body weight from onset to termination of therapy)” value with L1210 leukemia is recorded as “+1.0%”. Further, the “Opt. effective daily dose” value with L1210 leukemia stood at 7.5 mg/kg. Besides, the “Relative alkylation of NBP” value in data set [4] (bovine serum (20%)) is listed as 5.7; in data set [4] (no serum), 1.0. Besides, the “Relative rate of hydrolysis” value in data set [5] (23 °C (37 °C = 1.00)) came out at 0.21; in data set [5] (30 °C (37 °C = 1.00)), 0.57; in data set [5] (32 °C (37 °C = 1.00)), 0.72; in data set [5] (37 °C (reference, 1.00)), 1.00; in data set [5] (pH 7.4 (pH 7.8 = 1.00)) it was 0.48; in data set [5] (pH 7.5 (pH 7.8 = 1.00)) it was 0.57. Besides, the “Relative rate of hydrolysis” value in data set [5] (pH 7.6 (pH 7.8 = 1.00)) is 0.70; in data set [5] (pH 7.8 (reference, 1.00)), 1.00. Also, in data set [5] (for every 0.2 unit rise in pH, pH 7.4-7.8 range), the “increase of hydrolysis rate with pH” value is listed as “approximately 50%”. Moreover, in data set [5] (for every 5° C. rise in temperature), the “change of hydrolysis rate with temperature” value is on record as “double”. In addition, the “rate of spontaneous hydrolysis relative to prior art compound” value in data set [5] (pH 7.4, 37° C., 1 mM phosphate buffer, vs 1,2,2-tris(methylsulfonyl)-1-(2-chloroethyl)hydrazine) is given as “approximately 0.7%”. In addition, in data set [5] (phosphate buffer, 200 μM solution, pH 7.4, 37° C., read-out: rate of hydrolysis), the degraded at 1 h, 200 µM was roughly 0.6%. In the data set “Water solubility”, the “water solubility (in words)” value is “most water-soluble analogs of this class”.
With `CCC(=O)N(N(CCCl)S(C)(=O)=O)S(C)(=O)=O` [Example 2, 1,2-Bis(methylsulfonyl)-1-(2-chloroethyl)-2-propionylhydrazine], the “"cures" of mice bearing the L1210 leukemia” value in the data set with L1210 leukemia (5 mg/kg×6) is reported as 60%. For the same compound, in the data set on L1210 leukemia (10 and 15 mg/kg×6), the “"cures" of mice bearing the L1210 leukemia” value was 80-90%. In the data set with L1210 leukemia, the “antineoplastic activity / curative effect (in words)” value is “appeared to be the most potent; also recorded: produced their curative effects at relatively low dosage levels”, the “% 60-day survivors” value is given as 90%, the “% T/C (average survival time of treated/control mice × 100)” value is 217% and the “AvΔ wt % (average percent change in body weight from onset to termination of therapy)” value is -6.4%. Besides, in the data set on L1210 leukemia, the “Opt. effective daily dose” value stood at 10 mg/kg. The “water solubility (in words)” value in “Water solubility” was “most water-soluble analogs of this class”.
With `CCCC(=O)N(N(CCCl)S(C)(=O)=O)S(C)(=O)=O` [Example 3, 1,2-Bis(methylsulfonyl)-1-(n-butyryl)-2-(2-chloroethyl)hydrazine], in the data set on L1210 leukemia, the “% 60-day survivors” value was found to be 20%, the “% T/C (average survival time of treated/control mice × 100)” value worked out at 207%, the “AvΔ wt % (average percent change in body weight from onset to termination of therapy)” value was 0.0% and the “Opt. effective daily dose” value came out at 10 mg/kg.
For `CC(C)(C)C(=O)N(N(CCCl)S(C)(=O)=O)S(C)(=O)=O` [Example 4, 1,2-Bis(methylsulfonyl)-1-(2-chloroethyl)-2-pivaloylhydrazine], in that order: 60%, 302%, 0.0% and 20 mg/kg.
As to `COCC(=O)N(N(CCCl)S(C)(=O)=O)S(C)(=O)=O` [Example 5, 1,2-Bis(methylsulfonyl)-1-(2-chloroethyl)-2-methoxyacetylhydrazine], the “sensitivity to serum hydrolysis (in words)” value in data set [6] is listed as “two most sensitive compounds”. For the same compound, the “"cures" of tumor-bearing mice” value in the data set with L1210 leukemia (10 mg/kg×6) is 100%. In the data set on L1210 leukemia, the “antineoplastic activity / curative effect (in words)” value is “produced their curative effects at relatively low dosage levels”, the “% 60-day survivors” value came to 100%, the “AvΔ wt % (average percent change in body weight from onset to termination of therapy)” value is -8.4% and the “Opt. effective daily dose” value is on record as 10 mg/kg. The lethality entry in the data set on L1210 leukemia (higher dose levels examined (above 10 mg/kg×6)) was “lethal at the higher dose levels examined”. Further, the “water solubility (in words)” value in the data set “Water solubility” is on record as “most water-soluble analogs of this class”.
Regarding `CS(=O)(=O)N(CCCl)N(C(=O)c1ccccc1)S(C)(=O)=O` [Example 6, 1-Benzoyl-1,2-bis(methylsulfonyl)-2-(2-chloroethyl)hydrazine], the Rate of hydrolysis in data set [3] (0% v/v bovine serum) came to 0.06 nmol/mL/min. Moreover, the Rate of hydrolysis in data set [3] (5% v/v bovine serum) stood at 0.22 nmol/mL/min. Besides, the Rate of hydrolysis in data set [3] (10% v/v bovine serum) turned out to be 0.52 nmol/mL/min. In addition, the Rate of hydrolysis in data set [3] (20% v/v bovine serum) worked out at 1.31 nmol/mL/min. Further, the “sensitivity to serum hydrolysis (in words)” value in data set [6] is “two most sensitive compounds”. In the data set on L1210 leukemia, the “% 60-day survivors” value turned out to be 20%, the “% T/C (average survival time of treated/control mice × 100)” value is 160%, the “AvΔ wt % (average percent change in body weight from onset to termination of therapy)” value was -7.7% and the “Opt. effective daily dose” value was 20 mg/kg.
Consider `CS(=O)(=O)N(CCCl)N(S(C)(=O)=O)S(C)(=O)=O` [PRIOR ART, 1-(2-chloroethyl)-1,2,2-tris(methylsulfonyl)hydrazine, reference compound], for which, in the data set with L1210 leukemia, the “% 60-day survivors” value was found to be 100%, the “AvΔ wt % (average percent change in body weight from onset to termination of therapy)” value is -7.2% and the “Opt. effective daily dose” value was determined as 60 mg/kg. The “antineoplastic activity (in words)” value in data set [1] is “displays potent antineoplastic activity”.
